“Also recorded” adds a separate entry of the source.
Legend:
[1] = test system: corneal neovascularization; experiment: Inhibition of corneal neovascularization in cauterized rat corneas, topical application four times per day for four days; type: in vivo; parameters: Neovascularization (total length of blood vessels in the cornea): unit not given here; conditions: for Inhibition of corneal vascularization (significance, in words): applied topically; for Corneal angiogenesis score / Neovascularization (total length of blood vessels in the cornea): mean ± S.D.; for Corneal angiogenesis score: subjective score 1+ to 4+; for Percent Inhibition of neovascularization (angiogenesis score) / Percent Inhibition (total vessel length): versus vehicle
Method: (§1) The ability of etianic acids to inhibit angiogenesis was evaluated in vivo in rats. Each animal had its corneas cauterized with silver nitrate/potassium nitrate. The cauterization causes the normally avascular cornea to undergo neovascularization (anglogenesis). This animal model, refined by Proia et al., Lab. Invest. 58: 473-479 (1988) and now a well-established assay, quantifies corneal neovascularization by computerized image analysis. […] Ophthalmol. Vis. Science 30: 1588-1593 (1989), and can provide a more definitive evaluation of angiostatic activity than models using the chorioallantoic membrane in the chick egg or the rabbit eye model. See Proia et al., Exp. Eye Res. (in press--to be published in Vol. 57 in 1993).
(§2) Female rats were obtained from Zivic-Miller Laboratories, Zelienople, Pa. There were 6-8 rats included in each treatment group. Neovascularization was induced by cauterizing both corneas of each anesthetized rat; this was performed by applying the tip of a silver nitrate/potassium nitrate to the cornea for 5-7.5 seconds.
The corneal tissues were treated with steroid formulations.
Steroids were formulated in vehicle containing 10 percent Tween 20 (polyoxyethylene sorbitan monolaurate) dissolved in 0.9 percent saline with percent (by volume) 0.2M tris (hydroxymethyl)aminomethane, pH 7.4. […] All steroids were tested at a concentration of 1 percent; additionally, some formulations were also tested at 0.01 percent, 0.1 percent, and 2.5 percent. Three 10 μl drops of each concentration of steroid were applied topically to each cauterized cornea four times per day (8:00 a.m., noon, 4:00 p.m., and 8:00 p.m.).
(§3) After four days of treatment, the animals were euthanized by rapid asphyxiation in a carbon dioxide chamber. The vasculature was perfused with a mixture of 10 percent india ink/11 percent gelatin/lactated Ringer's solution. Corneal tissue was dissected and prepared as flat mounts. During dissection, the corneas were examined with a dissecting microscope, and the degree of neovascularization was graded numerically from 1+ to 4+. After dehydration with alcohols, cleaning with xylene, mounting, and drying, the area of each cornea and the length of blood vessels were determined by computerized image analysis.
Statistical evaluation of inhibition of corneal neovascularization by each concentration of drug was evaluated using Mann Whitney U Tests (one-tailed; P<0.05=significant difference). […] In all cases, however, image analysis was used to quantitatively confirm visual observations.

[2] = test system: corneal neovascularization; experiment: Corneal angiogenesis inhibition, subcutaneous injection once/day; type: in vivo, rat
Method: as §1, §2, §3
The ability of compounds 2013, 518, and 513 to inhibit corneal angiogenesis when injected subcutaneously once/day to was assessed on rats prepared as described in Example 8. Dexamethasone was used as a positive control.

[3] = test system: glucocorticoid activity; experiment: Glucocorticoid activity (general statements)
[4] = test system: thymus; experiment: Thymus weight of rats treated topically in the corneal angiogenesis study; type: in vivo, rat
Method: as §1, §2
(§4) Steroids were formulated in vehicle containing 10 percent Tween 20 (polyoxyethylene sorbitan monolaurate) dissolved in 0.9 percent saline with percent (by volume) 0.2M tris (hydroxymethyl)aminomethane, pH 7.4. The steroids dissolved readily when the pH was adjusted to 7.0-8.0 with NaOH or KOH. All steroids were tested at a concentration of 1 percent; additionally, some formulations were also tested at 0.01 percent, 0.1 percent, and 2.5 percent. Three 10 μl drops of each concentration of steroid were applied topically to each cauterized cornea four times per day (8:00 a.m., noon, 4:00 p.m., and 8:00 p.m.).
as §3

[5] = Body weight of rats treated topically in the corneal angiogenesis study; type: in vivo, rat
Method: as §1, §2, §4
as §3, with “Corneal tissue was dissected and prepared as flat mounts. During dissection, the corneas were examined with a dissecting microscope, and the degree of neovascularization was graded numerically from 1+ to 4+.” left out

[6] = test system: human pancreatic HPAF cell line; experiment: Growth of human pancreatic HPAF tumor in nude mice; type: in vivo
Method: The HPAF tumor cell line is resistant to virtually all chemotherapeutic agents and grows rapidly in the nude mouse. Growth inhibition of this tumor for a period of time is thus indicative of significant anti-tumor activity.
Nude mice were implanted subcutaneously with 500,000 cells of the human pancreatic HPAF cell line. See Selvan et al., Drug Design and Discovery 9: […] (1992). Treatment with 9α-fluoro-11β-hydroxy-16β-methyl-1,4-androstadien-3-one 17β-carboxylic acid steroid (20 mg/kg subcutaneously in 90 percent propylene glycol-ethanol, injected twice daily 6 days per week) was commenced the following day and continued for one month. Growth of tumor was inhibited for about 3 weeks compared to controls. After this point, rapid growth ensued.

## C[C@@H]1C[C@H]2[C@@H]3CCC4=CC(=O)C=C[C@]4(C)[C@@]3(F)[C@@H](O)C[C@]2(C)[C@@]1(O)C(=O)O [Compound 518, 17β-carboxyl-11β,17α-dihydroxy-9α-fluoro-16α-methyl-1,4-androstadien-3-one]
[1]
  Inhibition of corneal vascularization (significance, in words): did not significantly inhibit corneal vascularization
[2]; 10 mg/kg/day subcutaneous
  Neovasc.: 15.7 ± 5.8%

## C[C@]12C[C@](C)(O)[C@H]3[C@@H](CCC4=CC(=O)C=C[C@@]43C)[C@@H]1CC[C@@H]2O [11β,17β-dihydroxy-11α-methyl-1,4-androstadien-3-one, reference compound]
[3]
  Glucocorticoid activity (in words): anti-glucocorticoid

## C[C@@H]1C[C@H]2[C@@H]3CCC4=CC(=O)C=C[C@]4(C)[C@@]3(F)[C@@H](O)C[C@]2(C)[C@@]1(O)C(=O)CO [dexamethasone, reference compound]
[4]; topical 0.1 percent, similar experiment
  Reduction of thymus weight: 75%
[2]; 1 mg/kg/day subcutaneous
  Neovasc.: 9.3 ± 2.2%
  Reduction of corneal neovascularization versus vehicle: -39.6%
[5]; topical 0.1 percent, end of four days of treatment
  Body weight less than control rats: 17%

## 9α-fluoro-11β-hydroxy-16β-methyl-1,4-androstadien-3-one 17β-carboxylic acid
[6]; 20 mg/kg subcutaneously twice daily 6 days per week, one month
  Period for which growth of tumor was inhibited compared to controls: about 3 weeks

## C[C@]12CCC(=O)C=C1CC[C@@H]1[C@@H]2[C@@H](O)C[C@@]2(C)[C@H]1CC[C@]2(O)C(=O)O [Compound 323, 17β-carboxyl-11β,17α-dihydroxy-4-androsten-3-one]
[1]
  Inhibition of corneal vascularization (significance, in words): did cause significant inhibition of corneal vascularization; also recorded: significantly suppressed
[1]; topical 0.01%
  Corneal angiogenesis score: 1.7 ± 1.1
[1]; topical 0.1%
  Corneal angiogenesis score: 2.1 ± 0.5
[1]; topical 1.0%
  Corneal angiogenesis score: 1.3 ± 0.9
  Percent Inhibition of neovascularization (angiogenesis score): 28%

## C[C@]12C[C@H](O)[C@H]3[C@@H](CCC4=CC(=O)CC[C@@]43C)[C@@H]1CC[C@@H]2C(=O)O [Compound 525, 17β-carboxyl-11β-hydroxy-4-androsten-3one]
[1]
  Inhibition of corneal vascularization (significance, in words): did not significantly inhibit corneal vascularization

## C[C@H]1C[C@@H]2[C@H]([C@@H](O)C[C@@]3(C)[C@H]2CC[C@]3(O)C(=O)O)[C@@]2(C)C=CC(=O)C=C12 [Compound 517, 17β-carboxyl-11β,17α-dihydroxy-6α-methyl-1,4-androstadien-3-one]
[1]
  Inhibition of corneal vascularization (significance, in words): did not significantly inhibit corneal vascularization

## C=C1C[C@H]2[C@@H]3C=C(C)C4=CC(=O)C=C[C@]4(C)[C@H]3CC[C@]2(C)[C@@]1(OC(C)=O)C(C)=O [1-dehydro melegesterol acetate, 17α-acetoxy-6-methyl-16-methylene-1,4,6-pregnatriene-3,20-dione]
[3]
  Glucocorticoid activity (in words): lacks glucocorticoid activity

## C[C@]12CC[C@H]3[C@@H](CCC4=CC(=O)CC[C@@]43C)[C@@H]1CC[C@@H]2C(=O)O [Compound 1000, 4-androsten-3-one-17β-carboxylic acid]
[1]
  Inhibition of corneal vascularization (significance, in words): did not significantly inhibit corneal vascularization

## C[C@]12CCC(=O)C=C1CC[C@@H]1[C@@H]2C(=O)C[C@@]2(C)[C@H]1CC[C@]2(O)C(=O)O [Compound 527, 17β-carboxyl-17α-hydroxy-4-androsten-3,11-dione]
[1]
  Inhibition of corneal vascularization (significance, in words): did not significantly inhibit corneal vascularization

## C[C@]12CC[C@@H](O)CC1CC[C@@H]1[C@@H]2[C@@H](O)C[C@@]2(C)[C@H]1CC[C@]2(O)C(=O)O (stereo partly drawn) [Compound 526, 17β-carboxyl-3α,11β,17α-trihydroxy-androstane]
[1]
  Inhibition of corneal vascularization (significance, in words): did not significantly inhibit corneal vascularization

## C[C@@H]1C[C@H]2[C@@H]3C[C@H](F)C4=CC(=O)C=C[C@]4(C)[C@@]3(F)[C@@H](O)C[C@]2(C)[C@@]1(O)C(=O)O [Compound 532, 6,9-difluoro-11β,17-dihydroxy-16α-methylpregna-1,4-diene-3-one-17β-carboxylic acid]
[4]; rat, in vivo
  Thymus weight difference between vehicle- and drug-treated groups (in words): no significant difference between vehicle- and drug-treated groups
[1]
  Inhibition of corneal vascularization (significance, in words): did cause significant inhibition of corneal vascularization; also recorded: ability of this compound to inhibit corneal neovascularization; also recorded: significant differences between vehicle and Compound 532 at all concentrations
[1]; topical 0.01 percent
  Neovascularization (total length of blood vessels in the cornea): 355.4 ± 62.2
  Percent Inhibition (total vessel length): 12.3%
[1]; topical 0.1 percent
  Neovascularization (total length of blood vessels in the cornea): 322.0 ± 78.0
  Percent Inhibition (total vessel length): 20.6%
[1]; topical 1.0 percent
  Neovascularization (total length of blood vessels in the cornea): 202.2 ± 74.3
  Percent Inhibition (total vessel length): 50.1%

## C[C@H]1C[C@H]2[C@@H]3CCC4=CC(=O)C=C[C@]4(C)[C@@]3(F)[C@@H](O)C[C@]2(C)[C@@]1(O)C(=O)O [Compound 513, 17β-carboxyl-11β,17α-dihydroxy-9α-fluoro-16β-methyl-1,4-androstadien-3-one]
[4]; rat, in vivo
  Change in thymus weight (in words): did not cause any significant change in thymus weight
  Decrease of thymus weight from control: 45%
  Thymus weight: 0.187±0.042 gm
[1]; 1 percent compound topical vs 0.1 percent dexamethasone sodium phosphate
  Degree of inhibition of corneal angiogenesis compared with dexamethasone: appeared similar to that caused by topically applied 0.1 percent dexamethasone sodium phosphate
[1]
  Inhibition of corneal vascularization (significance, in words): did cause significant inhibition of corneal vascularization
[1]; topical 0.01%
  Corneal angiogenesis score: 1.8 ± 0.4
  Percent Inhibition of neovascularization (angiogenesis score): 0%
[1]; topical 0.1%
  Corneal angiogenesis score: 1.1 ± 0.9
  Percent Inhibition of neovascularization (angiogenesis score): 39%
[1]; topical 1.0%
  Corneal angiogenesis score: 0.4 ± 0.4
  Percent Inhibition of neovascularization (angiogenesis score): 78%
[6]; nude mice
  Growth of HPAF tumor (in words): inhibits growth of the human HPAF pancreatic tumor in nude mice
[2]; 10 mg/kg/day subcutaneous
  Neovasc.: 8.2 ± 1.1%
  Reduction of corneal neovascularization versus vehicle: -46.7%
[5]; rat, in vivo
  Loss of body weight (in words): no significant loss of body weight

— patent publication US5646136A, “Methods of inhibiting angiogenesis and tumor growth, and treating ophthalmologic conditions with angiostatic and therapeutic steroids” (Duke University, priority 1994, dated 1997)
